A word on the IC50: it is the concentration that gives 50% inhibition.

These results are taken from patent US20250271419A1, “PLACENTA ORGANOID ON-A-CHIP AND USE THEREOF” (THE REGENTS OF THE UNIVERSITY OF CALIFORNIA, priority 2024, published 2025).

Where two headings read alike, the source gives them in different places.

Series [1] deals with day 7 placental organoids. The experiment in a line: Drug toxicity response, CellTiter-Glo luminescent cell viability, day 7 placental organoids. The note with it: Homo sapiens, read-out: IC50 (drug toxicity based on cell survival). The source says:
It is well-established that ethical constraints hamper the testing of drugs on pregnant women. Furthermore, maternal drug usage is known to promote a range of conditions, such as fetal drug tolerance, antibiotic resistance, toxicity, obesity and diabetes. While it is rendered safe to use certain drugs during pregnancy, the actual short as well as long-term effects of these drugs on fetal health cannot be currently studied. Therefore, as an application of the placental organoids systems in drug toxicity testing, these organoids were treated with commonly used compounds such as nicotine, acetaminophen, ibuprofen and lumiracoxib. […] Acetaminophen, also known as paracetamol, is usually considered as a safe antipyretic and analgesic medicine for pregnant women. However, acetaminophen and its metabolites easily cross the placenta and are potentially toxic as it has previously been detected in the fetus and is implicated in adverse birth and later life health outcomes. Nonsteroidal anti-inflammatory drugs (NSAIDs) such as Ibuprofen are the most commonly used medications for the treatment of pain, inflammation and fever during pregnancy. Ibuprofen readily enters fetal circulation, raising concerns about its long-term effects on fetal health and development. While the use of another NSAID, Lumiracoxib, has not been adequately investigated. […] Therefore, it has been recommended that it should not be used during the first two trimesters of pregnancy unless it justifies the potential risk to the fetus. Day 7and day 15 placental organoids were treated with increasing doses of drugs such as nicotine, acetaminophen, ibuprofen and lumiracoxib. The drug toxicity and IC50 value of the drugs was determined based on cell survival at 24 and 48 hours post drug exposure.
Placental organoids (12-15 organoids/well) were treated with different concentrations of nicotine (0.1, 0.5, 1, 5, 10, 20 mg/mL), acetaminophen (0.01, 0.1, 1, 5, 10, 20 mM), ibuprofen (25, 50, 100, 200, 400, 800 mg/mL) and lumiracoxib (0.01, 0.1, 1, 5, 10, 20 mM) for 24 and 48 hours to determine the IC50 value for drug toxicity. Post-incubation with the drugs for 24 and 48 hours respectively, the cell viability was determined using a CellTiter-Glo Luminescent cell viability assay (Promega #G7570). Briefly, cell supernatant was mixed with equal volume of CellTiter-Glo reagent for 2 minutes on an orbital shaker, incubated for 10 minutes in dark at room temperature and then the luminescence was determined using a Tecan plate reader (Tecan Spark).
On the technique in general: ATP-based viability assays read luminescence as a measure of living cells.

For series [2] the following is noted: crosses the placental barrier; cited from earlier work.

On to `CC(=O)Nc1ccc(O)cc1` [acetaminophen], for which the IC50 turned out to be 2680 µM in series [1] (24 hours post drug exposure) and 1110 µM in series [1] (48 hours post drug exposure).

On to `CC(C)Cc1ccc(C(C)C(=O)O)cc1` (centres unmarked) [ibuprofen], for which the IC50 in series [1] (48 hours post drug exposure) was 45300 µg/mL.

In the case of `Cc1ccc(Nc2c(F)cccc2Cl)c(CC(=O)O)c1` [lumiracoxib], the figures for the IC50 in series [1] (24 hours post drug exposure) and in series [1] (48 hours post drug exposure) were 841 µM and 220 µM, respectively.

Take `CN1CCCC1c1cccnc1` (centres unmarked) [nicotine]: the figures for the half-inhibitory concentration (IC50) in series [1] (24 hours post drug exposure) and in series [1] (48 hours post drug exposure) were 5700 µg/mL and 1190 µg/mL, respectively. Further, the “fetal concentration higher than mother” value in series [2] is recorded as 15%.
